For experiment [1], the target named is T1, human retinoic acid receptor γ (Homo sapiens, UniProt P13631).
T1 construct: made in house
T1 sequence (P13631 1-454): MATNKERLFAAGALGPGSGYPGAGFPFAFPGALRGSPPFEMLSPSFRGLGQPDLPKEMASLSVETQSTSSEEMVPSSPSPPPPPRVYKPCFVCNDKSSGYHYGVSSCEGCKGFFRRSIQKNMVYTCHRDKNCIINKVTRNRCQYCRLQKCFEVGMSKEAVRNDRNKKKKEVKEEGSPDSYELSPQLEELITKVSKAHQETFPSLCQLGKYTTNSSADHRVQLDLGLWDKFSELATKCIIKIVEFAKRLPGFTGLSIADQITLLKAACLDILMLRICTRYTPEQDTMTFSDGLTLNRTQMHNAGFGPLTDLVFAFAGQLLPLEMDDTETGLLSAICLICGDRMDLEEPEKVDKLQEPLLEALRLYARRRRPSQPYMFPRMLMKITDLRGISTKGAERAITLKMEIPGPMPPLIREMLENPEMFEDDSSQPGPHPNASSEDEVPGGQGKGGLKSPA
Description: Competition binding / retinoic acid binding, human retinoic acid receptor γ/BCV (FIG. 1).

Experiment [2] deals with DMBA-Induced Rat Mammary Tumors. Nature of the experiment: Effect on progression of DMBA-induced rat mammary tumors. The format is in vivo. Conditions: 1 mmol/Kg in diet. The text has this:
The control rats received DMBA intubation only and AIN-76A rat chow.

The next experiment concerns the target T2, mRARβ (Mus musculus, UniProt P22605).
T2 construct: made in house; host or cells: Spodoptera frugiperda insect cells, baculovirus (whole cell extract)
T2 sequence (P22605 1-448 isoform P22605-3): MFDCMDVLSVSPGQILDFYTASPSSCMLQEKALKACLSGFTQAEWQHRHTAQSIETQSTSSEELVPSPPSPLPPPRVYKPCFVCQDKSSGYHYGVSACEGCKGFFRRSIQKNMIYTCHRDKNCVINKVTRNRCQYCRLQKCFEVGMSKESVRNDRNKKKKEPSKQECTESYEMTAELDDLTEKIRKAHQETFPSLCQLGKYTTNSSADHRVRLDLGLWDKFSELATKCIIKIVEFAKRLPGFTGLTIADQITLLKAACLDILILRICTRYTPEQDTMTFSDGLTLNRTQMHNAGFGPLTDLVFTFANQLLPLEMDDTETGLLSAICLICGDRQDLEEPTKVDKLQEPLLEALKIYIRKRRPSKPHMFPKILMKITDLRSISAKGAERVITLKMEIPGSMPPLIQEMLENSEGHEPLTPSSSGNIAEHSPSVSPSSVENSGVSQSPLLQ
Nature of the experiment: Drug competition with (3H)retinoic acid binding, mRARβ. To be noted: read-out: percent reduction of binding of the (3H)retinoic acid, mRARβ; 1 μM drug; 5 nM [3H]RA.

The target in a further experiment is T3, mRARα (Mus musculus, UniProt P11416).
T3 construct: made in house; host or cells: Spodoptera frugiperda insect cells, baculovirus (whole cell extract)
T3 sequence (P11416 1-462): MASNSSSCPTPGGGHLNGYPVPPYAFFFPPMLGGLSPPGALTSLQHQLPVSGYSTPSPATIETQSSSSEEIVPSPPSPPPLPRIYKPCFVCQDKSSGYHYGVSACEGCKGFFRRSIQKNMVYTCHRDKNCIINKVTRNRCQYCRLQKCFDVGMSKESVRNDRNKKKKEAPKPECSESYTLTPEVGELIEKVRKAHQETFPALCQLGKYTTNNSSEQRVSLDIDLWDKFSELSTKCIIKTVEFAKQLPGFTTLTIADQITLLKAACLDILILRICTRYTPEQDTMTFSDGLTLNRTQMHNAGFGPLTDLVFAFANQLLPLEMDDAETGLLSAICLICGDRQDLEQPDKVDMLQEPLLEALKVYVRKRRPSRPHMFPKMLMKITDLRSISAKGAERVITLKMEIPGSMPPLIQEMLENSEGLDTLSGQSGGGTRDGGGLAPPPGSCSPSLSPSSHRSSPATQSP
Description: Drug competition with (3H)retinoic acid binding, mRARα. Conditions: read-out: percent reduction of binding of the (3H)retinoic acid, mRARα.

Experiment [3] deals with retinoic acid receptors α, β and γ. Nature of the experiment: Competition with retinoic acid for retinoic acid receptors (RAR α, β, γ), overall. The format is binding. To be noted: 1 μM drug.
The subject of the next experiment is MCF-7 cells. Description: Growth inhibition of MCF-7 human mammary tumor cells. In kind it is cell-based. To be noted: for IC50: Homo sapiens, MCF7, 168 h, 7 days, read-out: ED50 for growth inhibition of MCF-7 cells. As for the experimental part:
The antiproliferative activity of the drugs in MCF-7 human mammary tumor cell culture models were determined.
The MCF-7 cells were obtained originally from the Michigan Cancer Foundation. The cells were routinely grown as monolayers in T-25 plastic tissue culture flasks from Falcon, in Oxnard, Calif. containing 5.0 mL of B-10 medium consisting of Minimum Essential Medium (MEM, Earle's Base) supplemented with 1.0 mM MEM non-essential amino acid, 2.0 mM 1-glutamine,10% fetal bovine serum (FBS), and antibiotics. Culture conditions included a humidified atmosphere of 5% CO2 at 37° C. One-half of the medium was replenished twice a week. Cells were harvested by trypsinization upon confluency. All variables were evaluated in triplicate.
For the growth inhibition assay the MCF-7 cells were plated in 24-well plates at a density of 1.5×10^4 cells/cm^2. […] Control cultures were treated with an equivalent volume of absolute ethanol. On day 7 the cells were harvested by trypsinization and viability was assessed by trypan blue exclusion according to Ueda, H. et al. Cancer 1980, 46, 2203-2209. Total cell counts were obtained using a hemocytometer as well as a the Coulter Counter.

Another experiment concerns the target T4, mRARγ (Mus musculus, UniProt P18911).
T4 construct: made in house; host or cells: Spodoptera frugiperda insect cells, baculovirus (whole cell extract)
T4 sequence (P18911 1-458): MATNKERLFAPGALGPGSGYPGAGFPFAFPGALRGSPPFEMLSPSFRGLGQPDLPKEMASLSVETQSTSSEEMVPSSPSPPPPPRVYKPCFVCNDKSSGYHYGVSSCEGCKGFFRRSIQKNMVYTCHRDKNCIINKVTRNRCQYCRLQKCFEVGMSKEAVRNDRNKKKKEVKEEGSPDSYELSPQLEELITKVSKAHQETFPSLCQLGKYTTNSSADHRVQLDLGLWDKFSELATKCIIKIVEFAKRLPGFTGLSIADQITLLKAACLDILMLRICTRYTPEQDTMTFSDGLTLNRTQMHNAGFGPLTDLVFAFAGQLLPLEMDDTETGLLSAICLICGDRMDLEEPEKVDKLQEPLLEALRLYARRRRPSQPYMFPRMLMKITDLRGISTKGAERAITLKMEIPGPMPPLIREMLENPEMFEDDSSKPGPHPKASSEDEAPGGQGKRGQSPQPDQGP
Description: Drug competition with (3H)retinoic acid binding, mRARγ. Conditions: read-out: percent reduction of binding of the (3H)retinoic acid, mRARγ; 1 μM drug; 5 nM [3H]RA.

In a further experiment the test system is cancer. To be noted: literature; cited from earlier work.

SMILES strings stand for the structures. Entries after “also recorded” stand apart in the source; their conditions may differ. Read-outs that look alike come from different tables or passages of the source.

As to `CC1=C(/C=C/C(C)=C/C=C/C(C)=C/C(=O)N[C@@H]2O[C@H](CO)[C@@H](O)[C@H](O)[C@H]2O)C(C)(C)CCC1` [1-(B-D-glucopyranosyl) retinamide, 1-(β-D-glucopyranosyl) retinamide], in experiment [1] (1.3 nM [3H]-retinoic acid), the affinity corresponds to a Ki of 0.71 µM. Further, the “fold less effective than retinoic acid in competing for [3H]-retinoic acid binding to retinoic acid receptor γ” value in experiment [1] (vs retinoic acid, FIG. 1) is 1500 fold. For the same compound, the “effect on DMBA-induced mammary tumor development, in words” value in experiment [2] was “significantly prolonged the latency period of mammary cancer; also recorded: tumor induction was markedly delayed and reduced; also recorded: greater mammary tumor chemopreventive effect than does retinoic acid; also recorded: inhibit DMBA induced mammary tumor development”. The compound also showed a tumor latency in experiment [2] (15 mg DMBA oral) of 64 days. In experiment [2] (110 days post intubation), this compound gave a tumor incidents of 58% and a tumor number/rat of 0.92 tumors per rat.
Consider `CC1=C(/C=C/C(C)=C/C=C/C(C)=C/C(=O)Nc2ccc(C[C@@H]3O[C@H](CO)[C@@H](O)[C@H](O)[C@H]3O)cc2)C(C)(C)CCC1` [4-(retinamido)benzyl-C-glucoside], for which the inhibition at 1 µM on mRARβ was 64%; at mRARα (1 μM drug, 5 nM [3H]RA), 56%; on mRARγ, 77%. Also, the “competition with retinoic acid for the receptors, in words” value in experiment [3] is “significantly compete with retinoic acid for the receptors”. Moreover, the IC50 in the experiment on MCF-7 cells (Assay 1) was 3.4 µM. Besides, the “growth inhibition of MCF-7 cells, in words” value in the experiment on MCF-7 cells (comparison of drugs) is given as “exhibit the best growth inhibition of the cells”.
Take `CC1=C(/C=C/C(C)=C/C=C/C(C)=C/C(=O)Nc2ccc(C[C@@H]3OC[C@@H](O)[C@H](O)[C@H]3O)cc2)C(C)(C)CCC1` [4-(retinamido)benzyl-C-xyloside]: the inhibition at 1 µM on mRARβ stood at 3%; at mRARα (1 μM drug, 5 nM [3H]RA), 12%; at mRARγ, 2%. Further, the IC50 in the experiment on MCF-7 cells (Assay 2) was determined as 15 µM.
For the compound `CC1=C(/C=C/C(C)=C/C=C/C(C)=C/C(=O)Nc2ccc([C@@H]3O[C@H](CO)[C@@H](O)[C@H](O)[C@H]3O)cc2)C(C)(C)CCC1` [4-(retinamido)phenyl-C-glucoside], the IC50 in the experiment with MCF-7 cells (Assay 2) came out at 27 µM.
Turning to `CC1=C(/C=C/C(C)=C/C=C/C(C)=C\C(=O)O)C(C)(C)CCC1` [13-cis-retinoic acid, reference compound], the figures for the inhibition at 1 µM on mRARα and at mRARγ were 28% and 4%, respectively. Further, the cancer preventive activity result in the experiment with cancer is on record as “display cancer preventive activity”.
Turning to `CC(=O)OC/C=C(C)/C=C/C=C(C)/C=C/C1=C(C)CCCC1(C)C` [retinyl acetate], in the experiment with cancer, the cancer preventive activity result is reported as “display cancer preventive activity”.

(Values after US5599953A, “C-glycoside analogues of N-(4-hydroxyphenyl)retinamide-O-glucuronide” (The Ohio State Research Foundation, priority 1995, dated 1997).)
